We go through 4 compounds from BindingDB's records for PubMed 31865013 (n/a, 2020).

The assay addresses T1, Histone deacetylase 6 (Homo sapiens, UniProt Q9UBN7).
T1 sequence (Q9UBN7 whole entry): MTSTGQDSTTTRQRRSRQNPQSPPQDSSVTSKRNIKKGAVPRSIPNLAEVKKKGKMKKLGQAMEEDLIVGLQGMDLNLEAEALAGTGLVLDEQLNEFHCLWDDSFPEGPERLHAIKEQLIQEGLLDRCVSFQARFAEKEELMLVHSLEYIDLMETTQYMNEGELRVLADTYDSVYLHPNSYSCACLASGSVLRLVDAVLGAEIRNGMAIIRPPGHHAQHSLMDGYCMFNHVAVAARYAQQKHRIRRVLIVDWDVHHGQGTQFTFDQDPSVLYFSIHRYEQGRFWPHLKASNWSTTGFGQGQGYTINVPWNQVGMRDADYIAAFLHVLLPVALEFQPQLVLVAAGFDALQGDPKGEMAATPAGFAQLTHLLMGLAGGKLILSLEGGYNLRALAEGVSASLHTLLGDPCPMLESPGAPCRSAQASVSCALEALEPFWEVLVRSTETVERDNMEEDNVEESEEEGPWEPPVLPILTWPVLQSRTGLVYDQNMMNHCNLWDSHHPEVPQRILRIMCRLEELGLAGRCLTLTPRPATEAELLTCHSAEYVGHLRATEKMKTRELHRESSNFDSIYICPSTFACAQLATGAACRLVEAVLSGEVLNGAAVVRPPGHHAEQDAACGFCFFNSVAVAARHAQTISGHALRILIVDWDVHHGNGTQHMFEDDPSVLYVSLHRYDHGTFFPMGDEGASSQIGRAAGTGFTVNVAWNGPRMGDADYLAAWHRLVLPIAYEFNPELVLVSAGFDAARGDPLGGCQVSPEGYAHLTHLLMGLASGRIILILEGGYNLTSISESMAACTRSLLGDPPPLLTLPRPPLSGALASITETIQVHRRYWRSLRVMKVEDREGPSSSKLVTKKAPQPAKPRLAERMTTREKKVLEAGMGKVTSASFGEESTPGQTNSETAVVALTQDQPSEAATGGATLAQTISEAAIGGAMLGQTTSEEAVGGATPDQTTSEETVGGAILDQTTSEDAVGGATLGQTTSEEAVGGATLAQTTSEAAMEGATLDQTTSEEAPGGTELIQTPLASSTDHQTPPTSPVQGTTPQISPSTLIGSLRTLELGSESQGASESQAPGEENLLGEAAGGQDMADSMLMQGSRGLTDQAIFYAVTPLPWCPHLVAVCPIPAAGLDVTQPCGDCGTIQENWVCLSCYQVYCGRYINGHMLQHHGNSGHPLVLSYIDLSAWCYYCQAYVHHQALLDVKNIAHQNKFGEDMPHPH
The assay is described as follows: Inhibition of HDAC6 (unknown origin) using Fluor de lys as substrate by fluorescence based analysis.

pIC50: −log10 of the molar value.

For `CCCCCCCCCCCCOc1c(CC)cc(Cc2cnc(N)nc2N)cc1CC`, the pIC50 was 7.96.
With `COCCOc1cc(Cc2cnc(N)nc2N)cc2c1NCCC2`, the pIC50 is 7.80.
To `Nc1ncc(Cc2ccc3c(c2)CCCN3)c(N)n1` belongs 7.77.
With `CCc1cc(Cc2cnc(N)nc2N)cc(CC)c1N`, the pIC50 is 7.74.

Broadly, the pIC50 is the IC50 on a negative log10 scale, so that one unit is a factor of ten. The low end stands for a large IC50, the high end for a small IC50.
